Biological target: CDK4 (Homo sapiens, UniProt P11802+Q16531)
Assay: CDK4 percentage degradation in Calu-1 cells (Table 6)
Assay type: cell-based
Parameters: Cells that express cyclin D1-3 and CDK4/6 proteins were treated with heterobifunctional compounds; endogenous in cells; host or cells: Calu-1
Details: 16 hours; for inhibition at 0.04 µM: 40 nM; for inhibition at 0.2 µM: 200 nM
Procedure: Calu-(cells were treated with heterobifunctional compounds at 40 nM or 200 nM for 16 hours A: protein percentage degradation […]; B: protein percentage degradation <80%, and ≥50%; C: protein percentage degradation <50%, and ≥30%; D; protein percentage degradation […]; -, data not available.
Calu-1, T47D, MCF7, HCC1428 and other cells were cultured at 37° C. with 5% CO2 in RPMI 1640 or DMEM medium supplemented with 10% fetal bovine serum. Cells were authenticated using the short tandem repeat (STR) assays. Mycoplasma test results were negative. For palbo-resistant cell model, T47D cells were cultured long-term to resistance in the presence of 1 μM Palbociclib. Cells were deemed resistant when growing in the presence of Palbo at the same rate as parental cells.
Cultured cells were washed with cold PBS once and lysed in cold RIPA buffer supplemented with protease inhibitors and phosphatase inhibitors (Beyotime Biotechnology). The solutions were then incubated at 4 ? for 30 min with gentle agitation to fully lysed cells. Cell lysates were centrifuged at 13,000 rpm for 10 min at 4 ? and pellets were discarded. Total protein concentrations in the lysates were determined following BCA assays (Beyotime Biotechnology). Cell lysates were mixed with Laemmli loading buffer and heated at 99° C. for 5 min. Proteins were resolved on SDS-PAGE and visualized using Western ECL Substrate kits on a ChemiDoc MP Imaging system (Bio-Rad). Protein bands were quantitated using the Image Lab software provided by Bio-Rad.

Sequence of CDK4 (P11802 2-303 limits assumed): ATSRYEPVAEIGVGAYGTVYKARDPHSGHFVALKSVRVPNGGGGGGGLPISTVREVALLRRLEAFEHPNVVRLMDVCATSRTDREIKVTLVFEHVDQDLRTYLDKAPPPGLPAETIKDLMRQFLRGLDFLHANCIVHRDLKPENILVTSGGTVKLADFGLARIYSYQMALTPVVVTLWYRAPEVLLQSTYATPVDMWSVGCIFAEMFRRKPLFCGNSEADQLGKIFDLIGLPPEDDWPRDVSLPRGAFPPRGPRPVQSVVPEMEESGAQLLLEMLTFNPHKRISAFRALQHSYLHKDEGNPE
Sequence of CDK4 (P24385 whole entry partner): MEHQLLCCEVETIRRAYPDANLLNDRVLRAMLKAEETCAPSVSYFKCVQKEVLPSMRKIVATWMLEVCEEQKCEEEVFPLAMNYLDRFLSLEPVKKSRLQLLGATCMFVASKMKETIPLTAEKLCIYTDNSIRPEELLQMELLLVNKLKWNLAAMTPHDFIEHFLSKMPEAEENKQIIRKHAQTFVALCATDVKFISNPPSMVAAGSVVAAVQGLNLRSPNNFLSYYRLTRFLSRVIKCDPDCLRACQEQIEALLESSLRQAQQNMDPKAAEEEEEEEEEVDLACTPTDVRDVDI
Sequence of CDK4 (Q16531 2-1140 limits assumed): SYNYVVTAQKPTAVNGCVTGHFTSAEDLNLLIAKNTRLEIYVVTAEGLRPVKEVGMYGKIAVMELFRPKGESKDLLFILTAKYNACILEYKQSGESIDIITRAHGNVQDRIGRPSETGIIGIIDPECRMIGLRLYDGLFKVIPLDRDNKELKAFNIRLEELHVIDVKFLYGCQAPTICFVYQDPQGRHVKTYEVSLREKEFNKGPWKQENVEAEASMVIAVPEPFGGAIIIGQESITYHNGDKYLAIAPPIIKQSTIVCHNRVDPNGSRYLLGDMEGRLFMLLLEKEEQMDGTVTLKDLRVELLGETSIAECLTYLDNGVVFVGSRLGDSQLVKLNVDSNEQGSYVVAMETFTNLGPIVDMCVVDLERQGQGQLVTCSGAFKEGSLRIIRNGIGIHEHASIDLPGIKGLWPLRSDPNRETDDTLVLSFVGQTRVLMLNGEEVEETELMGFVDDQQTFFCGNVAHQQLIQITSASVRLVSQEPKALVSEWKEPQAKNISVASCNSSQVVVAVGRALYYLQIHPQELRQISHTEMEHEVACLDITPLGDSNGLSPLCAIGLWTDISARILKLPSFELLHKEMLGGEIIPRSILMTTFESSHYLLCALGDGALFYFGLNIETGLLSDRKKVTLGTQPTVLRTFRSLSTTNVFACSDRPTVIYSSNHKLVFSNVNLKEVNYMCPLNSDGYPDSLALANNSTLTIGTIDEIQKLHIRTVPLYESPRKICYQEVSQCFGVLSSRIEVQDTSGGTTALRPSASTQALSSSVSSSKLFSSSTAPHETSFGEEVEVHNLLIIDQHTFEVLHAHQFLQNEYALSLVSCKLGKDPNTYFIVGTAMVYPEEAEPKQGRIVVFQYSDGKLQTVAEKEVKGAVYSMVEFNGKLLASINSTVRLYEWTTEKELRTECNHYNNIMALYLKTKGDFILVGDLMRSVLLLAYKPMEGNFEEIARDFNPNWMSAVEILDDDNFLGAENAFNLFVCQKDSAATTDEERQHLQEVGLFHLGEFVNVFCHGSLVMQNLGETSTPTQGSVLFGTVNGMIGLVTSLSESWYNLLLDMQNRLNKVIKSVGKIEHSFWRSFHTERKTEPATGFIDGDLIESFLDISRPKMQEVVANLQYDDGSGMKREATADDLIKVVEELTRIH

| Compound | inhibition at 0.04 µM | inhibition at 0.2 µM |
| --- | --- | --- |
| CNc1ccc(C(=O)Nc2ccc(N(C)C)nn2)c(NCCCCC(=O)NCCN2CCN(c3ccc(Nc4ncc5c(C)c(C(C)=O)c(=O)n(C6CCCC6)c5n4)nc3)CC2)n1 [CPD-36, 2-((5-((2-(4-(6-((6-Acetyl-8-cyclopentyl-5-methyl-7-oxo-7,8-dihydropyrido[2,3-d]pyrimidin-2-yl)amino)pyridin-3-yl)piperazin-1-yl)ethyl)amino)-5-oxopentyl)amino)-N-(6-(dimethylamino)pyridazin-3-yl)-6-(methylamino)nicotinamide] | 30 to 50% | 50 to 80% |
| CNc1ccc(C(=O)Nc2ccc3c(n2)CCC3)c(NCCCCCNC(=O)CN2CCN(c3ccc(Nc4ncc5c(C)c(C(C)=O)c(=O)n(C6CCCC6)c5n4)nc3)CC2)n1 [CPD-40, 2-((5-(2-(4-(6-((6-Acetyl-8-cyclopentyl-5-methyl-7-oxo-7,8-dihydropyrido[2,3-d]pyrimidin-2-yl)amino)pyridin-3-yl)piperazin-1-yl)acetamido)pentyl)amino)-N-(6,7-dihydro-5H-cyclopenta[b]pyridin-2-yl)-6-(methylamino)nicotinamide] | 50 to 80% | 50 to 80% |
| CNc1ccc(C(=O)Nc2ccc(N(C)C)nn2)c(NCCC2CC(NC(=O)CN3CCN(c4ccc(Nc5ncc6c(C)c(C(C)=O)c(=O)n(C7CCCC7)c6n5)nc4)CC3)C2)n1 (stereo not drawn) [CPD-41, 2-((2-(3-(2-(4-(6-((6-Acetyl-8-cyclopentyl-5-methyl-7-oxo-7,8-dihydropyrido[2,3-d]pyrimidin-2-yl)amino)pyridin-3-yl)piperazin-1-yl)acetamido)cyclobutyl)ethyl)amino)-N-(6-(dimethylamino)pyridazin-3-yl)-6-(methylamino)nicotinamide] | 30 to 50% | 50 to 80% |
| CNc1ccc(C(=O)Nc2ccc(N(C)C)nn2)c(N2CCC(CCNC(=O)CN3CCN(c4ccc(Nc5ncc6c(C)c(C(C)=O)c(=O)n(C7CCCC7)c6n5)nc4)CC3)CC2)n1 [CPD-42, 2-(4-(2-(2-(4-(6-((6-Acetyl-8-cyclopentyl-5-methyl-7-oxo-7,8-dihydropyrido[2,3-d]pyrimidin-2-yl)amino)pyridin-3-yl)piperazin-1-yl)acetamido)ethyl)piperidin-1-yl)-N-(6-(dimethylamino)pyridazin-3-yl)-6-(methylamino)nicotinamide] | < 30% | < 30% |
| CNc1ccc(C(=O)Nc2ccc(N(C)C)nn2)c(N[C@H]2CC[C@H](CNC(=O)CN3CCN(c4ccc(Nc5ncc6c(C)c(C(C)=O)c(=O)n(C7CCCC7)c6n5)nc4)CC3)CC2)n1 [CPD-43, 2-((trans-4-((2-(4-(6-((6-Acetyl-8-cyclopentyl-5-methyl-7-oxo-7,8-dihydropyrido[2,3-d]pyrimidin-2-yl)amino)pyridin-3-yl)piperazin-1-yl)acetamido)methyl)cyclohexyl)amino)-N-(6-(dimethylamino)pyridazin-3-yl)-6-(methylamino)nicotinamide] | < 30% | 50 to 80% |
| CC(=O)c1c(C)c2cnc(Nc3ccc(N4CCN(CC(=O)NCCCCCNc5nc(C6CC6)ccc5C(=O)Nc5ccc(C)c(C6CC6)n5)CC4)cn3)nc2n(C2CCCC2)c1=O [CPD-44, 2-((5-(2-(4-(6-((6-Acetyl-8-cyclopentyl-5-methyl-7-oxo-7,8-dihydropyrido[2,3-d]pyrimidin-2-yl)amino)pyridin-3-yl)piperazin-1-yl)acetamido)pentyl)amino)-6-cyclopropyl-N-(6-cyclopropyl-5-methylpyridin-2-yl)nicotinamide] | < 30% | 30 to 50% |
| CC(=O)c1c(C)c2cnc(Nc3ccc(N4CCN(CC(=O)NCCC5CC(Nc6nc(C7CC7)ccc6C(=O)Nc6ccc(C)c(C7CC7)n6)C5)CC4)cn3)nc2n(C2CCCC2)c1=O (stereo not drawn) [CPD-45, 2-((3-(2-(2-(4-(6-((6-Acetyl-8-cyclopentyl-5-methyl-7-oxo-7,8-dihydropyrido[2,3-d]pyrimidin-2-yl)amino)pyridin-3-yl)piperazin-1-yl)acetamido)ethyl)cyclobutyl)amino)-6-cyclopropyl-N-(6-cyclopropyl-5-methylpyridin-2-yl)nicotinamide] | < 30% | < 30% |
| CNc1ccc(C(=O)Nc2ccc(N(C)C)cc2)c(NCCCCCNC(=O)CN2CCN(c3ccc(Nc4ncc5c(C)c(C(C)=O)c(=O)n(C6CCCC6)c5n4)nc3)CC2)n1 [CPD-46, 2-((5-(2-(4-(6-((6-Acetyl-8-cyclopentyl-5-methyl-7-oxo-7,8-dihydropyrido[2,3-d]pyrimidin-2-yl)amino)pyridin-3-yl)piperazin-1-yl)acetamido)pentyl)amino)-N-(4-(dimethylamino)phenyl)-6-(methylamino)nicotinamide] | < 30% | < 30% |
| CNc1ccc(C(=O)Nc2ccc(N(C)C)cn2)c(NCCCCCNC(=O)CN2CCN(c3ccc(Nc4ncc5c(C)c(C(C)=O)c(=O)n(C6CCCC6)c5n4)nc3)CC2)n1 [CPD-47, 2-((5-(2-(4-(6-((6-Acetyl-8-cyclopentyl-5-methyl-7-oxo-7,8-dihydropyrido[2,3-d]pyrimidin-2-yl)amino)pyridin-3-yl)piperazin-1-yl)acetamido)pentyl)amino)-N-(5-(dimethylamino)pyridin-2-yl)-6-(methylamino)nicotinamide] | < 30% | 50 to 80% |
| CNc1ccc(C(=O)NC2CCC(N(C)C)CC2)c(NCCCCCNC(=O)CN2CCN(c3ccc(Nc4ncc5c(C)c(C(C)=O)c(=O)n(C6CCCC6)c5n4)nc3)CC2)n1 (stereo not drawn) [CPD-48, 2-((5-(2-(4-(6-((6-Acetyl-8-cyclopentyl-5-methyl-7-oxo-7,8-dihydropyrido[2,3-d]pyrimidin-2-yl)amino)pyridin-3-yl)piperazin-1-yl)acetamido)pentyl)amino)-N-(4-(dimethylamino)cyclohexyl)-6-(methylamino)nicotinamide] | < 30% | < 30% |
| CNc1ccc(C(=O)Nc2ccn(C)n2)c(NCCCCCNC(=O)CN2CCN(c3ccc(Nc4ncc5c(C)c(C(C)=O)c(=O)n(C6CCCC6)c5n4)nc3)CC2)n1 [CPD-49, 2-((5-(2-(4-(6-((6-Acetyl-8-cyclopentyl-5-methyl-7-oxo-7,8-dihydropyrido[2,3-d]pyrimidin-2-yl)amino)pyridin-3-yl)piperazin-1-yl)acetamido)pentyl)amino)-N-(1-methyl-1H-pyrazol-3-yl)-6-(methylamino)nicotinamide] | 50 to 80% | 50 to 80% |
| CNc1ccc(C(=O)Nc2cc(C)cc(C3CC3)n2)c(NCCCCCNC(=O)CN2CCN(c3ccc(Nc4ncc5c(C)c(C(C)=O)c(=O)n(C6CCCC6)c5n4)nc3)CC2)n1 [CPD-53, 2-((5-(2-(4-(6-((6-Acetyl-8-cyclopentyl-5-methyl-7-oxo-7,8-dihydropyrido[2,3-d]pyrimidin-2-yl)amino)pyridin-3-yl)piperazin-1-yl)acetamido)pentyl)amino)-N-(6-cyclopropyl-4-methylpyridin-2-yl)-6-(methylamino)nicotinamide] | 50 to 80% | 50 to 80% |
| CNc1ccc(C(=O)NC2CCC(N(C)C)C2)c(NCCCCCNC(=O)CN2CCN(c3ccc(Nc4ncc5c(C)c(C(C)=O)c(=O)n(C6CCCC6)c5n4)nc3)CC2)n1 (stereo not drawn) [CPD-55, 2-((5-(2-(4-(6-((6-Acetyl-8-cyclopentyl-5-methyl-7-oxo-7,8-dihydropyrido[2,3-d]pyrimidin-2-yl)amino)pyridin-3-yl)piperazin-1-yl)acetamido)pentyl)amino)-N-(3-(dimethylamino)cyclopentyl)-6-(methylamino)nicotinamide] | < 30% | < 30% |
| CNc1ccc(C(=O)Nc2nc(C3CC3)c(C)s2)c(NCCCCCNC(=O)CN2CCN(c3ccc(Nc4ncc5c(C)c(C(C)=O)c(=O)n(C6CCCC6)c5n4)nc3)CC2)n1 [CPD-56, 2-((5-(2-(4-(6-((6-Acetyl-8-cyclopentyl-5-methyl-7-oxo-7,8-dihydropyrido[2,3-d]pyrimidin-2-yl)amino)pyridin-3-yl)piperazin-1-yl)acetamido)pentyl)amino)-N-(4-cyclopropyl-5-methylthiazol-2-yl)-6-(methylamino)nicotinamide] | 50 to 80% | 50 to 80% |
| CNc1ccc(C(=O)Nc2ccc(N(C)C)nc2)c(NCCCCCNC(=O)CN2CCN(c3ccc(Nc4ncc5c(C)c(C(C)=O)c(=O)n(C6CCCC6)c5n4)nc3)CC2)n1 [CPD-58, 2-((5-(2-(4-(6-((6-Acetyl-8-cyclopentyl-5-methyl-7-oxo-7,8-dihydropyrido[2,3-d]pyrimidin-2-yl)amino)pyridin-3-yl)piperazin-1-yl)acetamido)pentyl)amino)-N-(6-(dimethylamino)pyridin-3-yl)-6-(methylamino)nicotinamide] | 30 to 50% | 50 to 80% |
